Results published in PubChem BioAssay AID256 (DTP/NCI, 2004).
Where “and” joins values, the source holds several entries; their conditions need not be identical. Equal entries are not always repeated. Toxic doses and inconclusive results are not listed.

Test system: CD2F1 mice, L1210 leukemia ip, survival T/C
Assay: NCI In Vivo Anticancer Drug Screen. Data for tumor model L1210 Leukemia (intraperitoneal) in CD2F1 (CDF1) mice
Conditions: higher = longer survival
In short: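 Implant tumor; dose compound or vehicle; measure endpoint in both groups; report treated divided by control.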

[1] = endpoint: mean survival time, dose: 100.0 mg/kg/injection, schedule: Q01DX009 (ip), vehicle: saline with Tween-80
[2] = endpoint: mean survival time, dose: 100.0 mg/kg/injection, schedule: Q04DX003 (ip), vehicle: saline with Tween-80
[3] = endpoint: mean survival time, dose: 200.0 mg/kg/injection, schedule: Q01DX009 (ip), vehicle: saline with Tween-80
[4] = endpoint: mean survival time, dose: 200.0 mg/kg/injection, schedule: Q04DX003 (ip), vehicle: saline with Tween-80
[5] = endpoint: mean survival time, dose: 400.0 mg/kg/injection, schedule: Q04DX003 (ip), vehicle: saline with Tween-80
[6] = endpoint: mean survival time, dose: 100.0 mg/kg/injection, schedule: Q01DX001 (ip), vehicle: saline with Tween-80
[7] = endpoint: mean survival time, dose: 200.0 mg/kg/injection, schedule: Q01DX001 (ip), vehicle: saline with Tween-80
[8] = endpoint: mean survival time, dose: 400.0 mg/kg/injection, schedule: Q01DX001 (ip), vehicle: saline with Tween-80
[9] = endpoint: mean survival time, dose: 200.0 mg/kg/injection, schedule: Q04DX003 (ip), vehicle: saline

Compound: NC(=S)N/N=C/c1cccc(CC(O)(C(F)(F)F)C(F)(F)F)n1
- T/C (endpoint: mean survival time, dose: 12.5 mg/kg/injection, schedule: Q04DX003 (ip), vehicle: saline with Tween-80): 97 % of control
- T/C (endpoint: mean survival time, dose: 25.0 mg/kg/injection, schedule: Q04DX003 (ip), vehicle: saline with Tween-80): 94 % of control
- T/C (endpoint: mean survival time, dose: 50.0 mg/kg/injection, schedule: Q04DX003 (ip), vehicle: saline with Tween-80): 96 % of control

Compound: CCOc1cccc(Cl)n1
- T/C [1]: 94 % of control
- T/C [2]: 101 % of control
- T/C [3]: 102 % of control
- T/C [4]: 98 % of control
- T/C [5]: 98 % of control

Compound: CC(C)OC(=O)Nc1cccc(Cl)c1F
- T/C [6]: 96 % of control
- T/C [7]: 95 % of control
- T/C [8]: 96 % of control

Compound: CN1CC(=O)NC1=S
- T/C (endpoint: mean survival time, dose: 100.0 mg/kg/injection, schedule: Q01DX001 (ip), vehicle: saline): 87 % of control

Compound: CC1SC(=S)N(c2ccccc2)C1=O (stereo not drawn)
- T/C [2]: 112 % of control
- T/C [4]: 97 % of control
- T/C [5]: 101 % of control

Compound: Cc1ccc(S(=O)(=O)Nc2ccc(I)cc2)cc1
- T/C (endpoint: mean survival time, dose: 50.0 mg/kg/injection, schedule: Q01DX009 (ip), vehicle: saline with Tween-80): 94 % of control
- T/C [1]: 97 % of control
- T/C [2]: 92 % of control
- T/C [3]: 95 % of control
- T/C [4]: 94 % of control
- T/C [5]: 86 % of control

Compound: NNC(=O)c1ccc(O)cc1
- T/C [6]: 90 % of control
- T/C [7]: 94 % of control
- T/C [8]: 96 % of control

Compound: Nc1ccc(N=Nc2ccc(S(=O)(=O)O)cc2)cc1
- T/C [2]: 97 % of control
- T/C [4]: 93 % of control
- T/C [5]: 97 % of control

Compound: [C-]#[O+].[Cl][Sn]([Cl])[Cl].[Cl][Sn]([Cl])[Cl].[Pt].c1ccncc1
- T/C (endpoint: median survival time, dose: 3.12 mg/kg/injection, schedule: Q04DX003 (ip), vehicle: saline with Tween-80): 113 % of control
- T/C (endpoint: median survival time, dose: 6.25 mg/kg/injection, schedule: Q04DX003 (ip), vehicle: saline with Tween-80): 110 % of control
- T/C (endpoint: median survival time, dose: 12.5 mg/kg/injection, schedule: Q04DX003 (ip), vehicle: saline with Tween-80): 110 % of control
- T/C (endpoint: median survival time, dose: 25.0 mg/kg/injection, schedule: Q04DX003 (ip), vehicle: saline with Tween-80): 102 % of control
- T/C (endpoint: median survival time, dose: 50.0 mg/kg/injection, schedule: Q04DX003 (ip), vehicle: saline with Tween-80): 108 % of control
- T/C (endpoint: median survival time, dose: 100.0 mg/kg/injection, schedule: Q04DX003 (ip), vehicle: saline with Tween-80): 108 % of control
- T/C (endpoint: median survival time, dose: 200.0 mg/kg/injection, schedule: Q04DX003 (ip), vehicle: saline with Tween-80): 120 % of control

Compound: Clc1cc(CBr)c2ccccc2n1
- T/C (endpoint: mean survival time, dose: 100.0 mg/kg/injection, schedule: Q04DX002 (ip), vehicle: saline with Tween-80): 101 % of control

Compound: COc1ccc(C(=O)NNC(=O)c2ccc(OC)cc2)cc1
- T/C (endpoint: mean survival time, dose: 100.0 mg/kg/injection, schedule: Q01DX001 (ip), vehicle: Klucel (hydroxypropylcellulose) (HPC)): 108 % of control
- T/C (endpoint: mean survival time, dose: 200.0 mg/kg/injection, schedule: Q01DX001 (ip), vehicle: Klucel (hydroxypropylcellulose) (HPC)): 104 % of control
- T/C (endpoint: mean survival time, dose: 400.0 mg/kg/injection, schedule: Q01DX001 (ip), vehicle: Klucel (hydroxypropylcellulose) (HPC)): 100 % of control

Compound: CC(=O)CC(=O)c1ccccc1.CC(=O)CC(=O)c1ccccc1.[Pd]
- T/C (endpoint: mean survival time, dose: 3.13 mg/kg/injection, schedule: Q04DX003 (ip), vehicle: distilled water + Tween-80): 98 % of control
- T/C (endpoint: mean survival time, dose: 6.25 mg/kg/injection, schedule: Q04DX003 (ip), vehicle: distilled water + Tween-80): 89 % of control
- T/C (endpoint: mean survival time, dose: 12.5 mg/kg/injection, schedule: Q04DX003 (ip), vehicle: distilled water + Tween-80): 100 % of control
- T/C (endpoint: mean survival time, dose: 25.0 mg/kg/injection, schedule: Q04DX003 (ip), vehicle: distilled water + Tween-80): 86 % of control
- T/C (endpoint: mean survival time, dose: 50.0 mg/kg/injection, schedule: Q04DX003 (ip), vehicle: distilled water + Tween-80): 87 % of control
- T/C (endpoint: mean survival time, dose: 100.0 mg/kg/injection, schedule: Q04DX003 (ip), vehicle: distilled water + Tween-80): 89 % of control
- T/C (endpoint: mean survival time, dose: 200.0 mg/kg/injection, schedule: Q04DX003 (ip), vehicle: distilled water + Tween-80): 93 % of control

Compound: N=C(N)SCCSC(=N)N
- T/C (endpoint: mean survival time, dose: 25.0 mg/kg/injection, schedule: Q01DX009 (ip), vehicle: saline): 92 % of control
- T/C (endpoint: mean survival time, dose: 50.0 mg/kg/injection, schedule: Q01DX009 (ip), vehicle: saline): 94 % of control
- T/C (endpoint: mean survival time, dose: 100.0 mg/kg/injection, schedule: Q01DX009 (ip), vehicle: saline): 94 % of control
- T/C (endpoint: mean survival time, dose: 100.0 mg/kg/injection, schedule: Q04DX003 (ip), vehicle: saline): 100 % of control
- T/C [9]: 105 % of control

Compound: CC[n+]1ccc(Nc2ccc(NC(=O)c3ccc(Nc4cc[n+](CC)c5ccc(N)cc45)cc3)cc2)cc1
- T/C (endpoint: mean survival time, dose: 0.25 mg/kg/injection, schedule: Q01DX009 (ip), vehicle: saline): 109 % of control
- T/C (endpoint: mean survival time, dose: 0.5 mg/kg/injection, schedule: Q01DX009 (ip), vehicle: water): 153 % of control
- T/C (endpoint: mean survival time, dose: 1.0 mg/kg/injection, schedule: Q01DX009 (ip), vehicle: saline): 154 % of control
- T/C (endpoint: mean survival time, dose: 1.0 mg/kg/injection, schedule: Q01DX009 (ip), vehicle: water): 228 % of control
- T/C (endpoint: mean survival time, dose: 2.0 mg/kg/injection, schedule: Q01DX009 (ip), vehicle: saline): 243 % of control
- T/C (endpoint: mean survival time, dose: 2.0 mg/kg/injection, schedule: Q01DX009 (ip), vehicle: water): 224 % of control
- T/C (endpoint: mean survival time, dose: 4.0 mg/kg/injection, schedule: Q01DX009 (ip), vehicle: water): 115 % of control

Compound: OCC1OC(Nc2ncnc3snnc23)C(O)C1O (stereo not drawn)
- T/C [9]: 157 % of control
- T/C (endpoint: mean survival time, dose: 400.0 mg/kg/injection, schedule: Q04DX003 (ip), vehicle: saline): 173 % of control

Compound: C(#Cc1ccccn1)c1ccccn1.[Pt].c1ccc([PH+](c2ccccc2)c2ccccc2)cc1.c1ccc([PH+](c2ccccc2)c2ccccc2)cc1
- T/C (endpoint: median survival time, dose: 3.13 mg/kg/injection, schedule: Q04DX003 (ip), vehicle: distilled water + Tween-80): 104 % of control
- T/C (endpoint: median survival time, dose: 6.25 mg/kg/injection, schedule: Q04DX003 (ip), vehicle: distilled water + Tween-80): 105 % of control
- T/C (endpoint: median survival time, dose: 12.5 mg/kg/injection, schedule: Q04DX003 (ip), vehicle: distilled water + Tween-80): 100 % of control
- T/C (endpoint: median survival time, dose: 25.0 mg/kg/injection, schedule: Q04DX003 (ip), vehicle: distilled water + Tween-80): 97 % of control
- T/C (endpoint: median survival time, dose: 50.0 mg/kg/injection, schedule: Q04DX003 (ip), vehicle: distilled water + Tween-80): 96 % of control
- T/C (endpoint: median survival time, dose: 100.0 mg/kg/injection, schedule: Q04DX003 (ip), vehicle: distilled water + Tween-80): 94 % of control

Compound: O=C(OCC1OCOC(COC(=O)c2ccccc2)C(O)C1O)c1ccccc1 (stereo not drawn)
- T/C [2]: 97 % of control
- T/C [4]: 97 % of control
- T/C [5]: 86 % of control

Compound: CCSc1n[nH]c(=O)nc1SC
- T/C (endpoint: mean survival time, dose: 75.0 mg/kg/injection, schedule: Q01DX001 (ip), vehicle: saline): 98 % of control
- T/C (endpoint: mean survival time, dose: 150.0 mg/kg/injection, schedule: Q01DX001 (ip), vehicle: saline): 96 % of control
- T/C (endpoint: mean survival time, dose: 300.0 mg/kg/injection, schedule: Q01DX001 (ip), vehicle: saline): 97 % of control

Compound: O=C(NCCCCCCNC(=O)N1CC1)N1CC1
- T/C (endpoint: mean survival time, dose: 0.4 mg/kg/injection, schedule: Q01DX001 (ip), vehicle: saline): 109 % of control
- T/C (endpoint: mean survival time, dose: 0.8 mg/kg/injection, schedule: Q01DX001 (ip), vehicle: saline): 118 % of control
- T/C (endpoint: mean survival time, dose: 1.7 mg/kg/injection, schedule: Q01DX001 (ip), vehicle: saline): 114 % of control

Compound: COC(=O)/C(Br)=C/C(C)=O
- T/C [6]: 107 % of control
- T/C [7]: 95 % of control

Compound: CC(C)Oc1ccc(N2C(=O)C(C)CNC2=S)cc1 (stereo not drawn)
- T/C (endpoint: mean survival time, dose: 75.0 mg/kg/injection, schedule: Q01DX001 (ip), vehicle: other): 96 % of control
- T/C (endpoint: mean survival time, dose: 150.0 mg/kg/injection, schedule: Q01DX001 (ip), vehicle: other): 97 % of control
- T/C (endpoint: mean survival time, dose: 300.0 mg/kg/injection, schedule: Q01DX001 (ip), vehicle: other): 96 % of control

Compound: O=C(N/N=C/c1ccccc1Cl)c1ccccc1
- T/C (endpoint: mean survival time, dose: 100.0 mg/kg/injection, schedule: Q01DX009 (ip), vehicle: Klucel (hydroxypropylcellulose) (HPC)): 103 % of control
- T/C (endpoint: mean survival time, dose: 200.0 mg/kg/injection, schedule: Q01DX009 (ip), vehicle: Klucel (hydroxypropylcellulose) (HPC)): 98 % of control
- T/C (endpoint: mean survival time, dose: 400.0 mg/kg/injection, schedule: Q01DX009 (ip), vehicle: Klucel (hydroxypropylcellulose) (HPC)): 107 % of control

Compound: CCCC(C)C1=NC(C)(C)CCO1 (stereo not drawn)
- T/C (endpoint: mean survival time, dose: 12.5 mg/kg/injection, schedule: Q04DX002 (ip), vehicle: saline): 96 % of control
- T/C (endpoint: mean survival time, dose: 25.0 mg/kg/injection, schedule: Q04DX002 (ip), vehicle: saline): 101 % of control
- T/C (endpoint: mean survival time, dose: 50.0 mg/kg/injection, schedule: Q04DX002 (ip), vehicle: saline): 93 % of control

Compound: CCCNCC(=O)O[C@]1(CC)C(=O)OCc2c1cc1n(c2=O)Cc2cc3ccccc3nc2-1
- T/C (endpoint: median survival time, dose: 7.5 mg/kg/injection, schedule: Q04DX002 (ip), vehicle: saline): 112 % of control
- T/C (endpoint: median survival time, dose: 30.0 mg/kg/injection, schedule: Q04DX002 (ip), vehicle: saline): 159 % of control and 204 % of control
- T/C (endpoint: median survival time, dose: 60.0 mg/kg/injection, schedule: Q04DX002 (ip), vehicle: saline): 116 % of control and 106 % of control
